Earlier results in publication PMC3575012 (Scientific Reports, 2013).

Key:
[1] = system: plaque deposited Aβ
[2] = system: amyloid precursor protein; settings: stated as known, explained by buried free N-terminus of Aβ; ref not given
[3] = system: Alzheimer's disease; settings: cohort of patients suffering “mild” AD; ref not given

Substance	binding preference [1]	cross reactivity with the amyloid precursor protein [2]	cognitive improvement [3]
Bapineuzumab	Preferential binding	lack of cross reactivity	–
Solanezumab	–	–	small but significant cognitive improvement
